Laboratory results as given in US11634686B2, “Method of producing naive pluripotent stem cells” (priority 2016, dated 2023).

Columns and labels:
primed hPSCs = experiment: Conversion of hPSCs from primed to naive pluripotency (Nanog+ cells among hNA+ human cells, dome-shaped colonies); type: cell-based; settings: for effect of removal of the component from 2iLI medium on Nanog+ cells and mESC-like colonies: primed H9 after Torin1 3 hr, 5 days culture on MEF
Description: Primed hPSCs were treated with 10 μM ROCK inhibitor Y27632 (Abcam) overnight in hESC medium. After being washed twice in phosphate-buffered saline (PBS), primed hPSCs were cultured in 2iLI medium with 10 μM Torin1 (Tocris) for 3 hours. 2iLI medium contained 50% glucose-free DMEM/F12 (Life Technologies) and 50% glucose-free Neurobasal (Life Technologies), 5 mM glucose, 1 mM glutamine, 1% NEAA, 0.1 mM […], 100 U/ml penicillin, 100 μg/ml streptomycin, 5 mg/mL bovine serum albumin (Sigma) to maintain osmolarity, 20 ng/mL recombinant human LIF (Millipore), […] human insulin (Sigma), 1 μM PD0325901 (PD, EMD Millipore), and 3 μM CHIR99021 (CH, Stemgent). For N004 iPSCs, 2iLI medium with 0.8 μM CHIR99021 was used instead. Then hPSCs were trypsinized into single cells using TrypLE (Life Technologies) for 5 min at 37° C. The single cells were plated on MEF feeders (5-6×10^4/cm^2) in 2iLI medium (without Torin1), which was changed daily. Small, bright, dome-shaped colonies appeared in 4-5 days and were picked manually at day 5-7 for dissociation by TrypLE into single cells, which were plated on fresh MEF cells. After several manual passages, mouse ESC-like colonies were uniformly seen and passaged every 3 days with TrypLE and maintained in 2iLI media (without Torin1). Immunostaining was performed using standard protocol to detect various antigens in cultured cells or frozen tissue sections. Briefly, cells or tissue sections were fixed in 4% paraformaldehyde (Sigma) for 20 min, treated with 0.1% Triton X-100 for 15 min at room temperature for permeabilization, blocked in 3% BSA for 1 hour at room temperature, and then incubated with the indicated primary antibodies (Table S1) overnight at 4° C. and secondary antibodies for 1 h at 37° C. Secondary antibodies were AlexaFluor 488, 594, and 647 (1:1,000, Thermo fisher Scientific). Alkaline phosphatase (AP) staining was performed using the Alkaline Phosphatase Kit (Millipore). Diaminobenzidine (DAB) staining was also used to detect GFP expression in frozen embryo sections according to manufacturer's protocol (Vector Laboratories). Briefly, the frozen sections on slides were thawed at room temperature for 5 min. Then the slides were treated with 0.3% H2O2 solution in PBS at room temperature for 10 min to block endogenous peroxidase activity, and then treated with 3% BSA for 45 min for blocking. The sections were incubated with primary antibody (anti-GFP) in 0.1% BSA for 30 min at room temperature, rinsed briefly in PBS 3 times (5 min each), and then incubated with biotinylated secondary antibody for 30 min followed by PBS rinsing for 3 times (5 min each). The sections were incubated with VECTASTAIN ABC reagent (Vector Laboratories) for 30 min, washed with PBS for 5 min. The sections were incubated with 100 μl peroxidase substrate solution (Sigma, D4293) on the slide under microscope until desired staining intensity and then washed with PBS to remove the substrate solution. For live imaging of mitochondria, primed or naive hPSCs were incubated in prewarmed hESC medium (for primed hPSCs) or 2iLI medium (for naive hPSCs) containing 50 nM MitoTracker Green FM or 100 nM TMRE (Life Technologies) for 15 min at 37° C. Then the staining medium was replaced with the corresponding prewarmed medium without dyes. Cells were then imaged on a Leica DMI6000B fluorescence microscope. Quantification of LC3II puncta was performed using NIH ImageJ with the AUTOCOUNTER pluggin, which calculates the percentage of cell area covered by LC3II puncta.

TFE3 = experiment: Torin1/rapamycin-induced nuclear translocation of TFE3 (immunostaining); type: cell-based, human; settings: primed H9 hESCs; inhibition of mTor
Description: We named this medium 2iLI.
(§1) Immunostaining was performed using standard protocol to detect various antigens in cultured cells or frozen tissue sections. Briefly, cells or tissue sections were fixed in 4% paraformaldehyde (Sigma) for 20 min, treated with 0.1% Triton X-100 for 15 min at room temperature for permeabilization, blocked in 3% BSA for 1 hour at room temperature, and then incubated with the indicated primary antibodies (Table S1) overnight at 4° C. and secondary antibodies for 1 h at 37° C. Secondary antibodies were AlexaFluor 488, 594, and 647 (1:1,000, Thermo fisher Scientific). Alkaline phosphatase (AP) staining was performed using the Alkaline Phosphatase Kit (Millipore). Diaminobenzidine (DAB) staining was also used to detect GFP expression in frozen embryo sections according to manufacturer's protocol (Vector Laboratories). Briefly, the frozen sections on slides were thawed at room temperature for 5 min. Then the slides were treated with 0.3% H2O2 solution in PBS at room temperature for 10 min to block endogenous peroxidase activity, and then treated with 3% BSA for 45 min for blocking. […] Cells were then imaged on a Leica DMI6000B fluorescence microscope. Quantification of LC3II puncta was performed using NIH ImageJ with the AUTOCOUNTER pluggin, which calculates the percentage of cell area covered by LC3II puncta.

primed H9 hESCs = experiment: Autophagy by costaining for LC3 and Lamp1 (LC3II puncta); type: cell-based, human
Description: as §1

CNC(=O)c1ccccc1Oc1nc(Nc2cc(OC)c(OC)c(OC)c2)ncc1Br [SBI-0206965]
effect on primed-to-naive conversion of blocking autophagy (primed hPSCs; primed H9 treated 3 hr, with 2iLI and Torin1, Nanog+ of hNA+ cells after five days): not significantly affected

O=C(NOC[C@H](O)CO)c1ccc(F)c(F)c1Nc1ccc(I)cc1F [PD, PD0325901]
effect of removal of the component from 2iLI medium on Nanog+ cells and mESC-like colonies (primed hPSCs): drastically reduced Nanog^+ cells and mESC-like colonies

human insulin: human insulin, component of 2iLI medium
percentage of Nanog+ cells among all human cells (hNA+) on replacing N2 and B27 supplements (primed hPSCs; primed H9, Torin1 10 μM 3 hr, human insulin 18 μg/ml, about 5 days on MEF feeders): much higher percentage of Nanog^+ cells
effect of removal of the component from 2iLI medium on Nanog+ cells and mESC-like colonies (primed hPSCs): drastically reduced Nanog^+ cells and mESC-like colonies

CCC(=O)N1CCN(c2ccc(-n3c(=O)ccc4cnc5ccc(-c6cnc7ccccc7c6)cc5c43)cc2C(F)(F)F)CC1 [Torin1]
conversion of hPSCs from primed to naive pluripotency (primed hPSCs; transient treatment (10 μM for 3 hr) in 2iLI medium, 5 mM glucose, 5% O2): converted hPSCs from primed to naive pluripotency
translocation of TFE3 from cytoplasm to nucleus (TFE3): induced rapid translocation of TFE3 from cytoplasm to nucleus
induction of autophagy, combined treatment (primed H9 hESCs; 2iLI medium with 5 mM glucose and 10 μM Torin1 for 3 hr): induced autophagy most prominently
induction of autophagy (primed H9 hESCs; primed H9 in hESC medium, mTor inhibition for 3 hr): induced autophagy

human LIF: recombinant human Leukemia Inhibitory Factor, component of 2iLI medium
effect of removal of the component from 2iLI medium on Nanog+ cells and mESC-like colonies (primed hPSCs): drastically reduced Nanog^+ cells and mESC-like colonies

Cc1c[nH]c(-c2cnc(NCCNc3ccc(C#N)cn3)nc2-c2ccc(Cl)cc2Cl)n1 [CHIR99021]
optimized concentration for conversion of N004 iPSCs to naive state (primed hPSCs; N004 iPSCs, all other conditions as in 2iLI medium, percentage of human cells positive for Nanog): 0.8 µM
effect of removal of the component from 2iLI medium on Nanog+ cells and mESC-like colonies (primed hPSCs): drastically reduced Nanog^+ cells and mESC-like colonies
